Measurements taken from publication PMC5975834 (2015).

What was measured:
[1] = system: 15 bp Bi-quadruplex (DNA, G4) GGGTAGGGCGGGTTGGGTTTTTTTTTTTTTTTGGGTAGGGCGGGTTGGG; conditions: K+ 20 mM KAc, 70 mM KCl (assumed KAc buffer)
[2] = system: TSDzyme (out) (DNA, G4) GGGTAGGGCGGGTTGGGCAGTTGAGACGAACATTCCTAAGTCTGAAATTTATCACCCGCCATAGTAGACGTATCACCAGG/CTTGCTACACGATTCAGACTTAGGAATGTTCGACATGCGAGGGTCCAATACCGACGATTACAG/GGTGATAAAACGTGTAGCAAGCTGTAATCGACGGGAAGAGCATGCCCATCCACTACTATGGCG/CCTCGCATGACTCAACTGCCTGGTGATACGAGGATGGGCATGCTCTTCCCGACGGTATTGGAC; experiment: free energy of hemin/G-quadruplex complex formation
[3] = system: Hairpin-based allosteric TSDzyme (DNA, G4) AGGCAGTTGAGACGAACATTCCTAAGTCTGAAATTTATCACCCGCCATAGTAGACGTATCACC/CTTGCTACACGATTCAGACTTAGGAATGTTCGACATGCGAGGGTCCAATACCGACGATTACAG/GGTGATAAAACGTGTAGCAAGCTGTAATCGACTCTAGCGGAAGAACCCACAACCGCGGCTCACTACTATGGCG/GGGTAGGGCGGGTTGGGTTAGAGACGGTATTGGACCCTCGCATGACTCAACTGCCTGGTGATACGAGAGCCTGGGTAGGGCGGGTTGGG; experiment: as above
[4] = system: ATP-based allosteric TSDzyme (DNA, G4) AGGCAGTTGAGACGAACATTCCTAAGTCTGAAATTTATCACCCGCCATAGTAGACGTATCACC/CTTGCTACACGATTCAGACTTAGGAATGTTCGACATGCGAGGGTCCAATACCGACGATTACAG/GGTGATAAAACGTGTAGCAAGCTGTAATCGACTCTAACCTGGGGGAGTATTGCGGAGGAAGGTGGCTCACTACTATGGCG/GGGTAGGGCGGGTTGGGTTAGAGACGGTATTGGACCCTCGCATGACTCAACTGCCTGGTGATACGAGAGCCTGGGTAGGGCGGGTTGGG; experiment: as above
[5] = system: 10 bp Bi-quadruplex (DNA, G4) GGGTAGGGCGGGTTGGGTTTTTTTTTTGGGTAGGGCGGGTTGGG; conditions: K+ 20 mM KAc, 70 mM KCl (assumed KAc buffer)
[6] = system: Hairpin-based allosteric TSDzyme (DNA, G4) AGGCAGTTGAGACGAACATTCCTAAGTCTGAAATTTATCACCCGCCATAGTAGACGTATCACC/CTTGCTACACGATTCAGACTTAGGAATGTTCGACATGCGAGGGTCCAATACCGACGATTACAG/GGTGATAAAACGTGTAGCAAGCTGTAATCGACTCTAGCGGAAGAACCCACAACCGCGGCTCACTACTATGGCG/GGGTAGGGCGGGTTGGGTTAGAGACGGTATTGGACCCTCGCATGACTCAACTGCCTGGTGATACGAGAGCCTGGGTAGGGCGGGTTGGG; conditions: K+ 20 mM KAc, 70 mM KCl (assumed KAc buffer)
[7] = system: 5 bp Bi-quadruplex (DNA, G4) GGGTAGGGCGGGTTGGGTTTTTGGGTAGGGCGGGTTGGG; conditions: K+ 20 mM KAc, 70 mM KCl (assumed KAc buffer)
[8] = system: ATP-based allosteric TSDzyme (DNA, G4) AGGCAGTTGAGACGAACATTCCTAAGTCTGAAATTTATCACCCGCCATAGTAGACGTATCACC/CTTGCTACACGATTCAGACTTAGGAATGTTCGACATGCGAGGGTCCAATACCGACGATTACAG/GGTGATAAAACGTGTAGCAAGCTGTAATCGACTCTAACCTGGGGGAGTATTGCGGAGGAAGGTGGCTCACTACTATGGCG/GGGTAGGGCGGGTTGGGTTAGAGACGGTATTGGACCCTCGCATGACTCAACTGCCTGGTGATACGAGAGCCTGGGTAGGGCGGGTTGGG; conditions: K+ 20 mM KAc, 70 mM KCl (assumed KAc buffer)
[9] = system: G-quadruplex (free hemin-G) (DNA, G4) GGGTAGGGCGGGTTGGG; experiment: free energy of hemin/G-quadruplex complex formation
[10] = system: TSDzyme (in) (DNA, G4) GGGTAGGGCGGGTTGGGCCAGGCAGTTGAGACGAACATTCCTAAGTCTGAAATTTATCACCCGCCATAGTAGACGTATCA/CTTGCTACACGATTCAGACTTAGGAATGTTCGACATGCGAGGGTCCAATACCGACGATTACAG/GGTGATAAAACGTGTAGCAAGCTGTAATCGACGGGAAGAGCATGCCCATCCACTACTATGGCG/CCTCGCATGACTCAACTGCCTGGTGATACGAGGATGGGCATGCTCTTCCCGACGGTATTGGAC; experiment: hemin absorbance at 404 nm vs DNA concentration; conditions: K+ 20 mM KAc, 70 mM KCl (assumed KAc buffer)
[11] = system: TSDzyme (in) (DNA, G4) GGGTAGGGCGGGTTGGGCCAGGCAGTTGAGACGAACATTCCTAAGTCTGAAATTTATCACCCGCCATAGTAGACGTATCA/CTTGCTACACGATTCAGACTTAGGAATGTTCGACATGCGAGGGTCCAATACCGACGATTACAG/GGTGATAAAACGTGTAGCAAGCTGTAATCGACGGGAAGAGCATGCCCATCCACTACTATGGCG/CCTCGCATGACTCAACTGCCTGGTGATACGAGGATGGGCATGCTCTTCCCGACGGTATTGGAC; experiment: free energy of hemin/G-quadruplex complex formation
[12] = system: TSDzyme (out) (DNA, G4) GGGTAGGGCGGGTTGGGCAGTTGAGACGAACATTCCTAAGTCTGAAATTTATCACCCGCCATAGTAGACGTATCACCAGG/CTTGCTACACGATTCAGACTTAGGAATGTTCGACATGCGAGGGTCCAATACCGACGATTACAG/GGTGATAAAACGTGTAGCAAGCTGTAATCGACGGGAAGAGCATGCCCATCCACTACTATGGCG/CCTCGCATGACTCAACTGCCTGGTGATACGAGGATGGGCATGCTCTTCCCGACGGTATTGGAC; experiment: hemin absorbance at 404 nm vs DNA concentration; conditions: K+ 20 mM KAc, 70 mM KCl (assumed KAc buffer)
[13] = system: G-quadruplex (free hemin-G) (DNA, G4) GGGTAGGGCGGGTTGGG; experiment: hemin absorbance at 404 nm vs DNA concentration; conditions: K+ 20 mM KAc, 70 mM KCl (assumed KAc buffer)
[14] = system: ATP-based allosteric TSDzyme (DNA, G4) AGGCAGTTGAGACGAACATTCCTAAGTCTGAAATTTATCACCCGCCATAGTAGACGTATCACC/CTTGCTACACGATTCAGACTTAGGAATGTTCGACATGCGAGGGTCCAATACCGACGATTACAG/GGTGATAAAACGTGTAGCAAGCTGTAATCGACTCTAACCTGGGGGAGTATTGCGGAGGAAGGTGGCTCACTACTATGGCG/GGGTAGGGCGGGTTGGGTTAGAGACGGTATTGGACCCTCGCATGACTCAACTGCCTGGTGATACGAGAGCCTGGGTAGGGCGGGTTGGG; experiment: allosteric change of peroxidase activity; conditions: 0.5 mM ATP

| Compound | KD [1] | -ΔGtetra [2] | -ΔGtetra [3] | -ΔGtetra [4] | KD [5] | KD [6] | KD [7] | KD [8] | -ΔGfree [9] | KD [10] | -ΔGtetra [11] | KD [12] | KD [13] | binding [14] |
| --- | --- | --- | --- | --- | --- | --- | --- | --- | --- | --- | --- | --- | --- | --- |
| C=CC1=C(C)C2=Cc3c(C=C)c(C)c4[n]3[Fe]([Cl])[n]3c(c(C)c(CCC(=O)O)c3=CC3=NC(=C4)C(C)=C3CCC(=O)O)=CC1=N2 | 1300 ± 400 nM | 8.34 ± 0.17 kcal/mol | 8.58 ± 0.17 kcal/mol | 8.65 ± 0.22 kcal/mol | 1300 ± 200 nM | 500 ± 150 nM | 1200 ± 200 nM | 450 ± 170 nM | 7.72 ± 0.14 kcal/mol | 700 ± 140 nM | 8.39 ± 0.12 kcal/mol | 750 ± 230 nM | 2200 ± 500 nM | – |
| Nc1ncnc2c1ncn2[C@@H]1O[C@H](COP(=O)(O)OP(=O)(O)OP(=O)(O)O)[C@@H](O)[C@H]1O | – | – | – | – | – | – | – | – | – | – | – | – | – | yes |
